Experimental data published in the supplement of paper PMC10307832.

Key:
Test in all cases: relative viability (nuclei count vs DMSO), 5 days (fraction); higher = more cells survive
201T = tested on: 201T
How it was run: (§1)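 Lung cancer cell lines were seeded in 1536-well plates and dosed by pin tool the next day, with either a single drug or a fixed anchor-drug dose combined with five library-drug doses (not always all listed) spaced in √10 steps. Five days later, one step fixed the cells and stained their nuclei (final 0.05% Triton X-100, 1% formaldehyde, 1 ug/ml Hoechst), and nuclei were counted on 4× images. Relative viability is the nuclei count in treated wells divided by the count in vehicle wells, and each value is the median of duplicate plates.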

COR-L 105 = tested on: COR-L 105
How it was run: as §1

COR-L23 = tested on: COR-L23
How it was run: as §1

EMC-BAC-2 = tested on: EMC-BAC-2
How it was run: as §1

HCC-15 = tested on: HCC-15
How it was run: as §1

HCC-366 = tested on: HCC-366
How it was run: as §1

LC-2-ad = tested on: LC-2-ad
How it was run: as §1

NCI-H1437 = tested on: NCI-H1437
How it was run: as §1

NCI-H1755 = tested on: NCI-H1755
How it was run: as §1

NCI-H1792 = tested on: NCI-H1792
How it was run: as §1

NCI-H1915 = tested on: NCI-H1915
How it was run: as §1

NCI-H2009 = tested on: NCI-H2009
How it was run: as §1

NCI-H2023 = tested on: NCI-H2023
How it was run: as §1

NCI-H2347 = tested on: NCI-H2347
How it was run: as §1

NCI-H23 = tested on: NCI-H23
How it was run: as §1

NCI-H650 = tested on: NCI-H650
How it was run: as §1

PC-14 = tested on: PC-14
How it was run: as §1

Cc1cn(-c2cc(NC(=O)c3ccc(C)c(Nc4nccc(-c5cccnc5)n4)c3)cc(C(F)(F)F)c2)cn1 [Nilotinib] + CC(C)C[C@H](NC(=O)[C@H](Cc1ccccc1)NC(=O)c1cnccn1)B(O)O [Bortezomib] (partner 0.002 µM)
relative viability (201T; first compound 0.001 µM): 1.12 | relative viability (201T; first compound 0.003162 µM): 1.09 | relative viability (201T; first compound 0.01 µM): 1.08 | relative viability (201T; first compound 0.1 µM): 1.11 | relative viability (COR-L 105; first compound 0.001 µM): 0.903 | relative viability (COR-L 105; first compound 0.01 µM): 0.812 | relative viability (COR-L 105; first compound 0.03162 µM): 0.601 | relative viability (COR-L 105; first compound 0.1 µM): 0.333 | relative viability (COR-L23; first compound 0.001 µM): 0.726 | relative viability (COR-L23; first compound 0.003162 µM): 1.24 | relative viability (COR-L23; first compound 0.01 µM): 1.22 | relative viability (COR-L23; first compound 0.03162 µM): 0.858 | relative viability (COR-L23; first compound 0.1 µM): 0.907 | relative viability (EMC-BAC-2; first compound 0.001 µM): 1.03 | relative viability (EMC-BAC-2; first compound 0.003162 µM): 1.08 | relative viability (EMC-BAC-2; first compound 0.01 µM): 1.09 | relative viability (EMC-BAC-2; first compound 0.03162 µM): 0.922 | relative viability (EMC-BAC-2; first compound 0.1 µM): 1.05 | relative viability (HCC-15; first compound 0.001 µM): 0.92 | relative viability (HCC-15; first compound 0.003162 µM): 1.41 | relative viability (HCC-15; first compound 0.01 µM): 1.33 | relative viability (HCC-15; first compound 0.03162 µM): 0.855 | relative viability (HCC-15; first compound 0.1 µM): 0.629 | relative viability (HCC-366; first compound 0.001 µM): 0.88 | relative viability (HCC-366; first compound 0.003162 µM): 1.74 | relative viability (HCC-366; first compound 0.01 µM): 1.35 | relative viability (HCC-366; first compound 0.03162 µM): 0.692 | relative viability (HCC-366; first compound 0.1 µM): 0.844 | relative viability (LC-2-ad; first compound 0.001 µM): 0.914 | relative viability (LC-2-ad; first compound 0.003162 µM): 1.17 | relative viability (LC-2-ad; first compound 0.01 µM): 0.983 | relative viability (LC-2-ad; first compound 0.03162 µM): 0.992 | relative viability (LC-2-ad; first compound 0.1 µM): 0.527 | relative viability (NCI-H1437; first compound 0.001 µM): 0.485 | relative viability (NCI-H1437; first compound 0.003162 µM): 0.505 | relative viability (NCI-H1437; first compound 0.01 µM): 0.651 | relative viability (NCI-H1437; first compound 0.03162 µM): 0.367 | relative viability (NCI-H1437; first compound 0.1 µM): 0.161 | relative viability (NCI-H1755; first compound 0.001 µM): 1 | relative viability (NCI-H1755; first compound 0.003162 µM): 1.16 | relative viability (NCI-H1755; first compound 0.01 µM): 1.15 | relative viability (NCI-H1755; first compound 0.03162 µM): 0.81 | relative viability (NCI-H1755; first compound 0.1 µM): 0.929 | relative viability (NCI-H1792; first compound 0.001 µM): 0.94 | relative viability (NCI-H1792; first compound 0.01 µM): 1.2 | relative viability (NCI-H1792; first compound 0.1 µM): 1.23 | relative viability (NCI-H1915; first compound 0.001 µM): 0.932 | relative viability (NCI-H1915; first compound 0.003162 µM): 1.17 | relative viability (NCI-H1915; first compound 0.01 µM): 1.18 | relative viability (NCI-H1915; first compound 0.03162 µM): 0.823 | relative viability (NCI-H1915; first compound 0.1 µM): 0.85 | relative viability (NCI-H2009; first compound 0.001 µM): 0.937 | relative viability (NCI-H2009; first compound 0.003162 µM): 1.14 | relative viability (NCI-H2009; first compound 0.01 µM): 1.16 | relative viability (NCI-H2009; first compound 0.03162 µM): 1.06 | relative viability (NCI-H2009; first compound 0.1 µM): 0.218 | relative viability (NCI-H2023; first compound 0.001 µM): 1 | relative viability (NCI-H2023; first compound 0.003162 µM): 0.691 | relative viability (NCI-H2023; first compound 0.01 µM): 1.16 | relative viability (NCI-H2023; first compound 0.03162 µM): 0.925 | relative viability (NCI-H2023; first compound 0.1 µM): 0.206 | relative viability (NCI-H2347; first compound 0.001 µM): 0.8 | relative viability (NCI-H2347; first compound 0.003162 µM): 1.08 | relative viability (NCI-H2347; first compound 0.01 µM): 1.17 | relative viability (NCI-H2347; first compound 0.03162 µM): 0.702 | relative viability (NCI-H2347; first compound 0.1 µM): 0.865 | relative viability (NCI-H23; first compound 0.001 µM): 1.07 | relative viability (NCI-H23; first compound 0.003162 µM): 1.37 | relative viability (NCI-H23; first compound 0.01 µM): 1.4 | relative viability (NCI-H23; first compound 0.03162 µM): 0.73 | relative viability (NCI-H23; first compound 0.1 µM): 0.775 | relative viability (NCI-H650; first compound 0.001 µM): 0.754 | relative viability (NCI-H650; first compound 0.003162 µM): 0.76 | relative viability (NCI-H650; first compound 0.01 µM): 0.923 | relative viability (NCI-H650; first compound 0.03162 µM): 0.794 | relative viability (NCI-H650; first compound 0.1 µM): 0.714 | relative viability (PC-14; first compound 0.003162 µM): 1.05 | relative viability (PC-14; first compound 0.01 µM): 1.02 | relative viability (PC-14; first compound 0.03162 µM): 0.797 | relative viability (PC-14; first compound 0.1 µM): 0.867
